What was measured:
[1] = test system: Untransfected HEK293 cells; test: Membrane partitioning, time-lapse fluorescence; conditions: 500 nM; for membrane accumulation time constant: change in membrane fluorescence over 30 min, exponential fit
Protocol: Two types of experiments were conducted with IVM-bdpy. The first was aimed at monitoring the time-course of membrane accumulation. Untransfected HEK293 cells were incubated in extracellular solution containing 500 nM IVM-bdpy and time-lapse images were taken over a period of 30 min (Fig 8A). The change in total membrane fluorescence averaged from 5 repeat experiments was then plotted against time and fitted to a standard exponential function (Fig 8B). In a control experiment, the corresponding accumulation rate was also determined for bdpy. To obtain the net membrane partitioning time-course for IVM-1, the data for the bdpy alone was subtracted from the data obtained for IVM-bdpy (Fig 8B). The time constants for the three plots were 6.5 min for the IVM-bdpy, 8.2 min for the bdpy fluorophore and 6.0 min for IVM-1. As the lipophilic properties of IVM and IVM-1 are similar (logPs of 5.4 and 5.1, respectively), we infer this analysis quantitatively reflects the membrane partitioning properties of IVM. […] It should be noted, however, that the IVM-bdpy experiment was done using a 100-fold higher concentration of drug in un-transfected cells and represents passive membrane accumulation, whereas the current plateau involved IVM binding to and activating receptors.
(§1) Membrane partitioning and FRAP experiments were performed on an LSM 710 inverted 2-photon confocal microscope equipped with a 40X water immersion objective lens (1.2 NA/280 μM WD/0.208 μM/pixel and a GFP/Alexa 488 filter set. Untransfected HEK293 cells at a confluency of 50–75% were plated onto 35-mm glass bottom dishes one day prior to experiments. The IVM-bdpy fluorophore was dissolved in 100% DMSO and stored at ‐20°C at a concentration of 24 mM.
(§2) A Mai Tai eHP 2-photon laser/760-1040 nm was used as an excitation source (power at 920 nm) for the FRAP experiments. The laser and bleaching power were set to 7% and 75% respectively. Membrane partitioning images were taken for 35 min at 0.5 Hz after replacing the cell medium (extracellular solution) with one containing the IVM-bdpy probe at a concentration of 500 nM. FRAP images were taken at a frequency of 0.5 Hz for 10 min after a 30 min equilibration period in 500 nM IVM-bdpy.

α (avr-14b) GluClRs = α (avr-14b) GluClRs (Haemonchus contortus, UniProt O46124); test: Two-electrode voltage clamp in oocytes, α GluClRs; format: cell-based, H. contortus; conditions: for efficacy (maximal current normalised to saturating glutamate) compared to IVM: 30 nM, normalised to 5 mM glutamate
Sequence of α (avr-14b) GluClRs (O46124 entry or part of it): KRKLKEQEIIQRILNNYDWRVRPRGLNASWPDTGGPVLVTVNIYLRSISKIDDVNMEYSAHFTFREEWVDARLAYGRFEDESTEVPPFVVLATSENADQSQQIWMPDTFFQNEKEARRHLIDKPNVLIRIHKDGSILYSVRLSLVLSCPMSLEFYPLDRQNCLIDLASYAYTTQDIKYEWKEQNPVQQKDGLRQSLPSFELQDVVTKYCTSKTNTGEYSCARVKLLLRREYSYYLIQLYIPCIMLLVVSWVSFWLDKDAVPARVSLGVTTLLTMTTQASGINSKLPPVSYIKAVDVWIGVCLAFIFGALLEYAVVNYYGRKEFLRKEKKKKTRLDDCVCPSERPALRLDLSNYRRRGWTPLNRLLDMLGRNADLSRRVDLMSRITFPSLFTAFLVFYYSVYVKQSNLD
Protocol: (§3) cDNAs encoding the α (avr-14b) (pcDNA 3.1+) or β (pUNIV) GluClR subunits of H. contortus were nuclear injected into oocytes (NASCO, WI USA) or transfected into HEK293AD cells (CellBank Australia) using a calcium phosphate-DNA co-precipitate method. Synapse formation between neurons and HEK293 cells was promoted by co-transfecting neuroligin 2A or 1B and the cDNA encoding CD4 surface antigen was also added to the transfection mixture so as to identify transfected cells. The oocytes and HEK cells were used for experiments 2–3 days after the introduction of the cDNAs. All experiments were done at room temperature (22 ± 1°C).
(§4) Xenopus laevis oocytes were harvested by surgical incision. The oocytes were then defolliculated with 1.5 mg/ml collagenase for 2 hours. Free oocytes were rinsed with calcium-free OR-2 solution containing (in mM) 82.5 NaCl, 2 KCl, 1 MgCl2, 5 HEPES, pH 7.4 and mature stage V or VI oocytes were isolated for experiments. The DNAs coding for α and β subunits were nuclear injected into the oocytes using a Nanoliter 2000 microinjector (WPI Inc) at a ratio of (α:β), 1:0, 0:1, 1:1 and 1:50. The total amount of injected DNA in all combinations was 400 ng ml^−1, including the 1:50 (α:β) combination (8 ng of DNA encoding the α and 392 ng of DNA encoding β subunits). Injected oocytes were incubated in ND96 storage solution (in mM) 96 NaCl, 2 KCl, 1 MgCl2.6H2O, 1.8 CaCl2, 5 HEPES, 50 μg ml^−1 gentamicin, 2.5 sodium pyruvate, 0.5 theophylline, pH 7.4 at 16°C for 2–3 days before experiment.
(§5) For the two-electrode voltage clamp recordings, each oocyte was secured in a cell bath that was continually perfused with ND96 recording solution (ND96 storage solution without pyruvate, theophylline and gentamicin). […] The two microelectrodes contained 3 M KCl and had resistances of 0.2–2 MΩ. Recordings were done using Clampex 10.2 software (Molecular Devices) at a clamped voltage of −40 mV. Currents were low-pass filtered at 200 Hz, sampled at 2 kHz using a Gene Clamp 500B amplifier and digitised by a Digidata 1440A interface. The IVM (IVM B1a) concentration-response experiments were standardised by using an application protocol that consisted of applying increasing concentrations of IVM for, respectively, 3 min, 3 min, 3 min, 2 min, 1 min, 1 min and 0.5 min.
(§6) Group data were analysed in SigmaPlot 13.0 using one-way ANOVAs, where p < 0.05 was taken as the significance threshold and expressed as mean ± SEM. Tests for normally distributed data are built into the SigmaPlot software. Confocal images were captured and analysed with Zen 2012 SP2 (Zeiss) software. Oocyte concentration-response data were fit to a Hill equation to obtain an EC50 and Hill co-efficient for each oocyte recording. These parameters were then averaged across multiple oocyte experiments of the same type. Single channel recordings were analysed in QuB software. […] The selected critical times eliminated periods of receptor desensitisation while retaining singe receptor active periods. Mean active period duration and intra-activation open probability was estimated from each patch. Group means were obtained by averaging across multiple patches for each recording condition.

αβ (1:50) GluClRs = αβ (1:50) GluClRs (Haemonchus contortus, UniProt O46124+P91730); test: Two-electrode voltage clamp in oocytes, αβ (1:50) GluClRs; format: cell-based, H. contortus; conditions: 30 nM; for efficacy (maximal current normalised to saturating glutamate) compared to IVM: normalised to 5 mM glutamate, αβ 1:50; for differential efficacy between α and αβ (1:50) GluClRs: α versus αβ (1:50)
Sequence of αβ (1:50) GluClRs (O46124 entry or part of it): as above
Sequence of αβ (1:50) GluClRs (P91730 19-432): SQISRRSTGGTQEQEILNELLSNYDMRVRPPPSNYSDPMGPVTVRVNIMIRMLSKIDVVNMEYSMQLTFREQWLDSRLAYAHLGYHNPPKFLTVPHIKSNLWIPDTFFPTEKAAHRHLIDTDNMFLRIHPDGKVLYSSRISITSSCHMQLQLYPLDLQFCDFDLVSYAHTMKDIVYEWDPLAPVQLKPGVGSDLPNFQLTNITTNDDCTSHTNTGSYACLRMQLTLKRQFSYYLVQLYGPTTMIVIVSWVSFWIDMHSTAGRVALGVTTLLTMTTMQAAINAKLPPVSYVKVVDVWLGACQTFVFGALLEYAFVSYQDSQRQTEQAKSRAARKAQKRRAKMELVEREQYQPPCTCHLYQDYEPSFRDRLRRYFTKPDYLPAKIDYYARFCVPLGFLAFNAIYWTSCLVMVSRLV
Protocol: as §3, §4, §5, §6

α GluClRs = test: IPSC recording in HEK293-neuron heteroculture, α GluClRs; format: cell-based, H. contortus; conditions: HEK293-neuron co-culture, −70 mV
Protocol: as §3
Primary neuronal cultures were prepared from cortices of E18 rat embryos, (University of Queensland Biological Services), which were triturated and plated at 100,000 cells per 18-mm poly-D-lysine-coated coverslip in DMEM with 10% fetal bovine serum. After 24 h the entire medium was replaced with Neurobasal medium that included 2% B27 and 1% GlutaMAX supplements. After one week half of this medium was replaced and the neurons were allowed to grow in vitro for 3–5 weeks before introducing the transfected HEK293 cells. Recordings of synaptic currents were done in whole-cell configuration at ‐70 mV using an Axopatch 200B amplifier (Molecular Devices), filtered at 5 kHz and digitized at 20 kHz using Clampex (pClamp 10 suite, Molecular Devices) via a Digidata 1440A digitizer.

[2] = test system: Untransfected HEK293 cells; test: Fluorescence recovery after photobleaching (FRAP), lateral membrane diffusion
Protocol: The second experiment was aimed at determining the lateral membrane diffusion properties of IVM using the fluorescence recovery after photobleaching (FRAP) technique. After a 30-min equilibration time, 5 cells were monitored for fluorescence recovery within a bleached circular patch of membrane of 3.7 μm diameter (Fig 8C). Any bleaching and recovery of the surrounding area of the cell was measured, using a similar circular patch and used to correct the recovery rate of the membrane delineated by the bleached area. We also noted that the recovery reached 98 ± 2% of control. The time constant (τ) for recovery of 1.3 minutes was used to calculate the diffusion coefficient (D), using the radius (r) of the bleached patch, according to D = r^2/4τ. The calculated value of D was 1.1 x 10^−2 μm^2s^−1. Over the course of 1 s, the IVM-bdpy probe would traverse 0.2 μm along the membrane surface (lateral diffusion rate of 0.2 μms^−1). […] We infer that this slow lateral diffusion rate coupled to membrane partitioning are the major contributors to local increases of IVM around its target binding sites and the slow quasi-irreversible actions of IVM at GluClRs.
as §1, §2

Compound	membrane accumulation time constant [1] [min]	efficacy (maximal current normalised to saturating glutamate) compared to IVM (α (avr-14b) GluClRs)	efficacy (maximal current normalised to saturating glutamate) compared to IVM (αβ (1:50) GluClRs)	differential efficacy between α and αβ (1:50) GluClRs (αβ (1:50) GluClRs)	also measured
C#CCOc1ccc(C2=C3C(C)=C(CC)C(C)=[N+]3[B-](F)(F)n3c(C)c(CC)c(C)c32)cc1 [bdpy]	8.2				
CC[C@H](C)[C@H]1O[C@]2(CC[C@@H]1C)C[C@@H]1C[C@@H](C/C=C(\C)[C@@H](OCOC)[C@@H](C)/C=C/C=C3\CO[C@@H]4[C@@H](O)C(C)=C[C@@H](C(=O)O1)[C@]34O)O2 [IVM-3]		most marked reduction in potency	most marked reduction in potency	ablated the differential efficacy	
CC[C@H](C)[C@H]1O[C@]2(CC[C@@H]1C)C[C@@H]1C[C@@H](C/C=C(\C)[C@@H](OCOC)[C@@H](C)/C=C/C=C3\CO[C@@H]4[C@H](O)C(C)=C[C@@H](C(=O)O1)[C@]34O)O2 [IVM-2]		restored efficacy	preservation of efficacy	abolished the differential sensitivity	
picrotoxin					effect on IPSCs (α GluClRs): blocked
CCC1=C(C)C2=C(c3ccc(OCc4cn(CCCC(=O)O[C@@H]5/C(C)=C/C[C@@H]6C[C@@H](C[C@]7(CC[C@H](C)[C@@H]([C@@H](C)CC)O7)O6)OC(=O)[C@@H]6C=C(C)[C@@H](O)[C@H]7OC/C(=C\C=C\[C@@H]5C)[C@]76O)nn4)cc3)c3c(C)c(CC)c(C)n3[B-](F)(F)[N+]2=C1C [IVM-bdpy]	6.5				time to saturate whole cell membranes [1]: about 18 minutes; potency relative to IVM (α (avr-14b) GluClRs; concentration-response, n = 6): reduced potency; activity at α GluClRs (α (avr-14b) GluClRs; oocyte current): active; FRAP recovery time constant (τ) ([2]; 500 nM, 30 min equilibration): 1.3 min; diffusion coefficient (D) ([2]; calculated by D = r^2/4τ): 1.1 x 10^−2 μm^2s^−1; lateral diffusion rate ([2]; in cell membrane): 0.2 μms^−1

From PMC6368337, “GluClR-mediated inhibitory postsynaptic currents reveal targets for ivermectin and potential mechanisms of ivermectin resistance” (PLoS Pathogens, 2019)
